Reference: US9913861B2 (priority 2013, dated 2018)
Where a name gives a salt, the structure may show the parent alone.

Assays:
[1] = system: Human rhinovirus type 14 (HRV14, major group); format: cell-based
[2] = system: BGM, HEp-2 and HeLa cells
[3] = system: Human respiratory syncytial virus, Long strain (RSV); format: cell-based
[4] = system: Human herpesvirus type 1 (HSV1); format: cell-based
[5] = system: Human coxsackievirus type 9 (CA9); format: cell-based
[6] = in vivo; cited from earlier work
[7] = system: herpesviruses and influenza viruses; conditions: cited from earlier work

Compound | percentage plaque inhibition [1] | percentage plaque inhibition [3] | percentage plaque inhibition [4] | plaque inhibition of the individual substances [4] | percentage plaque inhibition [5] | also measured
aconitine | −1.14/2.84% | 9.01/16.56% | 3.17/11.22% | approximately 8% | 8.40/10.69% | non-cell-toxic concentration (start of dilution series) [2]: 50 µg/mL; lethal dose [6]: approximately 5 mg
NC(=O)c1ncn([C@@H]2O[C@H](CO)[C@@H](O)[C@H]2O)n1 [ribavirin, Ribavirin] |  |  |  |  |  | reduction in infectivity [3]: 50-60%
Nc1nc2c(ncn2COCCO)c(=O)[nH]1 [aciclovir, Aciclovir] |  |  |  |  |  | reduction in infectivity [4]: 50-60%
CN1[C@@H]2CC[C@H]1CC(OC(=O)C(CO)c1ccccc1)C2.CN1[C@@H]2CC[C@H]1CC(OC(=O)C(CO)c1ccccc1)C2.O=S(=O)(O)O (stereo partly shown) [Atropine sulphate, atropine sulphate] | 11.30/14.12% | 7.74/12.36% | 19.52/41.90% | approximately 35% | 7.63/12.85% | 
Cc1cc(C(C)(C)C)c(O)c(C)c1CC1=NCCN1 [OMZ, Oxymetazoline hydrochloride] |  |  |  |  |  | reduction in infectivity [1]: 50-60%
CN1[C@@H]2CC[C@H]1C[C@@H](OC(=O)C(CO)c1ccccc1)C2 (stereo partly shown) [atropine] |  |  |  |  |  | concentration at which the maximum antiviral effect is achieved [7]: 2 mM
